Reference: article PMC6158189, “A pharmacological probe identifies cystathionine β-synthase as a new negative regulator for ferroptosis” (Cell Death & Disease, 2018)

Experiments:
Test in all cases: cell viability of stable HEK293T lines
Type in all cases: cell-based
293T-EV cells = conditions: Homo sapiens, HEK-293T, 24 h
Description: (§1) Fig. 4 CH004 arrests the cell cycle at the S phase. a CH004 reduces the cell viability of HEK293T and HepG2 cells. HEK293T or HepG2 cells were treated with indicated concentrations of CH004 for 24 h before the cell number was analyzed using the CellTiter96® Aqueous One Solution Cell Proliferation Assay (Promega, Materials and Methods). The means at each concentration of one representative experiment are shown as percentages of DMSO (control, 100%). Means ± SDs (n = 3). b Overexpression of hCBS or knock-down of hCBS counteracts the growth inhibition exerted by CH004 in HEK293T cells. Indicated HEK293T stable cell lines were treated with the CH004 or DMSO for 24 h. Then, the cell viability was quantified with the CellTiter 96® Aqueous One Solution Cell Proliferation Assay under the standard protocol (Promega). The means at each concentration are shown as percentages of their respective DMSO controls (100%). Means ± SDs (n = 3). The efficacy for CBS overexpression and knock-down in HEK293T cells was determined by Western blotting using an anti-CBS antibody (3E1, 1:2000; Abnova). c CH004 induces cell death in HEK293T and HepG2 cells. […] The means of percentages of dead cells (DMSO, 100%) from three independent samples are shown in d. Means ± SDs (n = 3). e, f Pharmacological inhibition or genetic knock-down of hCBS in HEK293T cells arrests the cell cycle at S phase. HEK293T cells were incubated with indicated compounds for 12 h, and the DNA content was quantified with propidium iodide to analyze the cell cycle distribution by flow cytometry (e). The cell cycle distributions for HEK293T-shNT and HEK293T-shCBS cells were accordingly analyzed and are shown in f. One representative diagram is shown for each condition. The mean percentages of various cell phases from three independent samples are shown in the respective right panels. Means ± SDs (n = 3). Statistical analyses were performed by two-way ANOVA with Bonferroni post-tests. *p < 0.05; **p < 0.01; ***p < 0.001.
(§2) HEK293T cells stably expressing hCBS-FL WT or Q222A mutant were generated using lentiviral particles carrying pCDH-hCBS or pCDH empty vector (EV) and pPACK Packaging Plasmid Mix (SBI, Mountain View, CA, USA) according to the manufacturer’s instructions. Similarly, CBS-knock-down HEK293T cells or control cells were obtained using the miRzip lentiviral vector according to the manufacturer’s protocol (SBI, MZIPxxxPA-1). The infected cells were then incubated with 2.5 μg/mL puromycin for two weeks until stable clones were obtained. The target sequence of shRNA-CBS was 5′-GTAGTTCCGCACTGAGTCG-3′, which has been used previously. The scramble control was 5′-TCCGCAGGTATGCACGCGT-3′.
(§3) Figure S12. CH004 inhibits the proliferation of cells via specifically targeting hCBS. (A-B) Dose-dependent curves of CH004 on the cell viability of CBS-stably-expressed HEK293T (A) or CBS-knockdown cells (B). Percentages of cell viability of CH004 obtained in Figure 4b were fitted to the non-linear equation using GraphPad Prism 5 to get the IC50 values of CH004 in respective cell lines (●, 293T-CBS WT cells; ○, 293T-EV; ▲, 293T-shCBS; △, 293T-shNT). Means ± SDs (n=3). […] HEK293T cells stably expressing of the lentiviral shRNA targeting CBS (shCBS) or control shRNA (shNT) were seeded at the density of ~ 3,000 cells per well in 96-well plates and the cell images in the bright field were acquired at indicated times by Image Xpress Micro® XLS (Molecular Devices, Sunnyvale, CA) under 10 × objective lens. Representative images of two independent experiments (n = 6 for each experiment) are shown in C. The cell numbers of images under 4 × objective lens of one representative experiment were calculated by Image Xpress Software and the data is shown in D. Means ± SDs (n=6). […] HepG2 cells were seeded in a 96-well plate at a density of 20000 cells per well and cultured for 24 h before treatment with indicated concentrations of CH004 for another 24 h. […]

293T-shCBS cells = test system: 293T-shCBS cells
Description: as §1, §2, §3

293T-shNT cells = conditions: Homo sapiens, HEK-293T, 24 h
Description: as §1, §2, §3

293T-CBS WT cells = test system: 293T-CBS WT cells
Description: as §1, §2, §3

Cn1nc(Cc2ccccc2)nc2c(=O)n(C)c(=O)nc1-2 [CH004, 3-benzyl-1,6-dimethylpyrimido[5,4-e][1,2,4]triazine-5,7(1H,6H)-dione]
IC50 (293T-EV cells): 9.6 ± 1.6 µM | increase of IC50 by CBS knock-down (293T-shCBS cells; 293T-shCBS vs 293T-shNT): 15 fold | IC50 (293T-shCBS cells; Homo sapiens, HEK-293T, 24 h): 43.2 ± 8.3 µM | IC50 (293T-shNT cells): 2.6 ± 0.5 µM | counteraction of inhibitory effect by overexpression of CBS (293T-CBS WT cells; 293T-CBS WT vs 293T-EV): 3 fold | IC50 (293T-CBS WT cells; Homo sapiens, HEK-293T, 24 h): 35.5 ± 1.2 µM
